ChEMBL document CHEMBL1126851, “Conformationally restrained analogs of sympathomimetic catecholamines. Synthesis, conformational analysis, and adrenergic activity of isochroman derivatives” (J Med Chem, 1993)

Key:
[1] = target: T1, Adrenergic receptor alpha-1 (Rattus norvegicus) (UniProt P15823+P23944+P43140); experiment: Tested for alpha adrenergic activity against alpha-1 receptor from isolated rat vas deferens; format: tissue-based
[2] = target: T2, Adrenergic receptor alpha-2 (UniProt P08913+P18825+P18089); details: Cavia porcellus; Ileum
Description: Tested for alpha adrenergic activity against alpha-2 receptor from isolated guinea pig ileum

[3] = target: T1, Adrenergic receptor alpha-1 (Rattus norvegicus); experiment: Intrinsic activity against alpha-1 receptor in isolated rat vas deferens; format: tissue-based
[4] = target: Beta-1 adrenergic receptor (Rattus norvegicus, UniProt P18090); experiment: biochemical
Description: Tested for binding affinity against beta-1 adrenergic receptor in rat brain using [3H]-CGP- 26505 as radioligand

[5] = target: Beta-2 adrenergic receptor (Cavia porcellus, UniProt Q8K4Z4); experiment: Inhibitory activity against beta-2 adrenergic receptor in guinea pig tracheal strip is determined
[6] = target: Beta-2 adrenergic receptor (Bos taurus, UniProt Q28044); experiment: Tested for binding affinity against beta-2 adrenergic receptor in bovine lung using [3H]DHA as radioligand
[7] = target: T3, Adrenergic receptor alpha-1 (Rattus norvegicus, UniProt P15823+P23944+P43140)
T3 sequence (P15823 whole entry): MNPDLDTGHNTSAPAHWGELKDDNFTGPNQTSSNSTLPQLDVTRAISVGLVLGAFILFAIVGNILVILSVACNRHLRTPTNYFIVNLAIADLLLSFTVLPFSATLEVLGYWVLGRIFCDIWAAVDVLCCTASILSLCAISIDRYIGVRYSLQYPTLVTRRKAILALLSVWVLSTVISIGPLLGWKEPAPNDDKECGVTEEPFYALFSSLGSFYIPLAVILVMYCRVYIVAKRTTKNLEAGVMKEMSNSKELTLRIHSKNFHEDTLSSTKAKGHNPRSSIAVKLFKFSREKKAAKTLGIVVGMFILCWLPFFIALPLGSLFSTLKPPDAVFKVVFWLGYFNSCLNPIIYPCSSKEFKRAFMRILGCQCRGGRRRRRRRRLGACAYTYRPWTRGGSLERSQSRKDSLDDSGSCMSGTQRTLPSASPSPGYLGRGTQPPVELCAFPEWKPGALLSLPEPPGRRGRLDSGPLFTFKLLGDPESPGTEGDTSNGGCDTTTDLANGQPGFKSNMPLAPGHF
T3 sequence (P23944 whole entry): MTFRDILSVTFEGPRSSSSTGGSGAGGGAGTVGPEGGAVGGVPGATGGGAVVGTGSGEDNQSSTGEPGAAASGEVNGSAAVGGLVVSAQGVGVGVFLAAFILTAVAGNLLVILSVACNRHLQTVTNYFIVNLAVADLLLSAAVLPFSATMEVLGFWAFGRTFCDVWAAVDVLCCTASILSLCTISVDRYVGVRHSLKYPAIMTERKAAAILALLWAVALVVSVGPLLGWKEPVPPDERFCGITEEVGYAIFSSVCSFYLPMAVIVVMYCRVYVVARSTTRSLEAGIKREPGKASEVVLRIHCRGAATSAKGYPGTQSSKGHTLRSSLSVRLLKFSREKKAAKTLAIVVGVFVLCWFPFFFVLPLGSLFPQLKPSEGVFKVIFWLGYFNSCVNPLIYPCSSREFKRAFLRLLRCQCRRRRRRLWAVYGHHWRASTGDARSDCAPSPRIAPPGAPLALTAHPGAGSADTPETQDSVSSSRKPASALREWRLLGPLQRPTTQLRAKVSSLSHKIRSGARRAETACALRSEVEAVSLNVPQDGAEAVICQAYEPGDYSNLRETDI
T3 sequence (P43140 whole entry): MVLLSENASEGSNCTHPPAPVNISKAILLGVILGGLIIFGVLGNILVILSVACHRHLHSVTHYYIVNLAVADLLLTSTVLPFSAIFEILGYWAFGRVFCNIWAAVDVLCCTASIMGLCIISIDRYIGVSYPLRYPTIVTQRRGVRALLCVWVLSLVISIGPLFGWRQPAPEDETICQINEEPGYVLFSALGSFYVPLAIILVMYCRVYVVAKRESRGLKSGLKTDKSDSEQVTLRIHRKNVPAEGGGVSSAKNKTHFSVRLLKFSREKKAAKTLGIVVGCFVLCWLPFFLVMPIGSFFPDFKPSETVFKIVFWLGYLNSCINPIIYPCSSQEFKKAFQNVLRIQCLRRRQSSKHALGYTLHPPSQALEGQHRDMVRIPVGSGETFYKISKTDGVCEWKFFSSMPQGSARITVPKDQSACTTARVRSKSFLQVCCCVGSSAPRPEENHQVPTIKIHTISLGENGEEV

[8] = target: T4, Adrenergic receptor alpha-2 (Rattus norvegicus, UniProt P22086+P19328+P22909)
T4 sequence (P22086 whole entry): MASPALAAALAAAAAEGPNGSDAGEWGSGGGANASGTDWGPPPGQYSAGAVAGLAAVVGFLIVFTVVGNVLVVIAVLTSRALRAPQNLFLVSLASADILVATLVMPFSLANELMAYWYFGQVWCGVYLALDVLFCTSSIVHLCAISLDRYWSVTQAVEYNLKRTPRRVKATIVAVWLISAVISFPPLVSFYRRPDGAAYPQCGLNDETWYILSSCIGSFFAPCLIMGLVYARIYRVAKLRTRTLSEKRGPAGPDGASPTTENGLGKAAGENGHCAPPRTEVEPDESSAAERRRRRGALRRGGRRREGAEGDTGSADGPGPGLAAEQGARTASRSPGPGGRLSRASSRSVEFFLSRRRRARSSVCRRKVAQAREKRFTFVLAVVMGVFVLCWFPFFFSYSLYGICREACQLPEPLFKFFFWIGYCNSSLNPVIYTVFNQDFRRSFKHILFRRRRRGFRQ
T4 sequence (P19328 whole entry): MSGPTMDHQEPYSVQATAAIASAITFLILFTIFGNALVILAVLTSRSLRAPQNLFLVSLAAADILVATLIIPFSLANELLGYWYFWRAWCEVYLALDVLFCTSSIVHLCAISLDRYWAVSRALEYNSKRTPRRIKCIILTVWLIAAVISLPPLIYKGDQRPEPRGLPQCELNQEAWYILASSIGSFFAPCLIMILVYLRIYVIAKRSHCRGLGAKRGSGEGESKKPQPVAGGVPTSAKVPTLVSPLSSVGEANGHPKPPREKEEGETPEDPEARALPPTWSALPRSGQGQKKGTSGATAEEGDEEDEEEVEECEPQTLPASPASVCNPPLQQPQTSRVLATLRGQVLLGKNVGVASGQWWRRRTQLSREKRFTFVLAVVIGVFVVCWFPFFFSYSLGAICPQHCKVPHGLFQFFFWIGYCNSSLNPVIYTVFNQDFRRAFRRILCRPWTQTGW
T4 sequence (P22909 whole entry): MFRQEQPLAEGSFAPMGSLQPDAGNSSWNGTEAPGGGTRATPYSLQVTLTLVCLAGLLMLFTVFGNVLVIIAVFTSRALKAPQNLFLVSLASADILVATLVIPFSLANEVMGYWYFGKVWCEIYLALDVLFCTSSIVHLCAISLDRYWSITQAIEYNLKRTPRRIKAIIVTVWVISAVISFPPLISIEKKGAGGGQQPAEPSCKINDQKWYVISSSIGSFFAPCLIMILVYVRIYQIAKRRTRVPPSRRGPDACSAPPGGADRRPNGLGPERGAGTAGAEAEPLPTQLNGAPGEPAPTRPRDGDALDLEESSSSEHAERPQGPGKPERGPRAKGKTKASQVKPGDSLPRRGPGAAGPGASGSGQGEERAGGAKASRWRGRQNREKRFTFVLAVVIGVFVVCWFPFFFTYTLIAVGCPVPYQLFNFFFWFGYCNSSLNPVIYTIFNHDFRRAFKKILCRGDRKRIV

[9] = target: Beta-1 adrenergic receptor (Cavia porcellus, UniProt B0FL73)
Description: (§1) Inhibitory activity against beta-1 adrenergic receptor in guinea pig atria is determined

[10] = target: T2, Adrenergic receptor alpha-2; details: Cavia porcellus; Ileum; remark: listed apart in the source
Description: Intrinsic activity against alpha-2 receptor in isolated guinea pig ileum

[11] = target: Beta-1 adrenergic receptor (Cavia porcellus) (UniProt B0FL73); experiment: Intrinsic activity against beta-1 receptor in isolated guinea pig atria
[12] = target: Beta-2 adrenergic receptor (Cavia porcellus) (UniProt Q8K4Z4)
[13] = target: Beta-2 adrenergic receptor (Cavia porcellus) (UniProt Q8K4Z4); remark: listed apart in the source
[14] = target: Beta-1 adrenergic receptor (Cavia porcellus) (UniProt B0FL73)
Description: as §1

[15] = target: T3, Adrenergic receptor alpha-1; experiment: -log IC50 value against alpha-1 receptor in rat vas deferens; format: tissue-based

Chain of Beta-1 adrenergic receptor (Rattus norvegicus, UniProt P18090) (P18090 whole entry): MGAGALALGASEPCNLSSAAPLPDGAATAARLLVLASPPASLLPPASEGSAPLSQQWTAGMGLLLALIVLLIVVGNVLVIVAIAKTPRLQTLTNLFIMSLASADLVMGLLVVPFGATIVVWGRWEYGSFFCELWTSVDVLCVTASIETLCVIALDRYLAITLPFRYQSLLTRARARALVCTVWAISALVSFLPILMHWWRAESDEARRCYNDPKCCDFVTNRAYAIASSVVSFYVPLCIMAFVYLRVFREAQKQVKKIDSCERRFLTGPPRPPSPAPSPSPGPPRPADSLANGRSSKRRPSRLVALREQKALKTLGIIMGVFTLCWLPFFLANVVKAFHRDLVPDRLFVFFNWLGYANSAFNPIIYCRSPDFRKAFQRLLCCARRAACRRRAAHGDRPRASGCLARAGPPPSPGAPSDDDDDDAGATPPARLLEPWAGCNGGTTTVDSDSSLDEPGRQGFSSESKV
Chain of Beta-2 adrenergic receptor (Bos taurus, UniProt Q28044) (Q28044 whole entry): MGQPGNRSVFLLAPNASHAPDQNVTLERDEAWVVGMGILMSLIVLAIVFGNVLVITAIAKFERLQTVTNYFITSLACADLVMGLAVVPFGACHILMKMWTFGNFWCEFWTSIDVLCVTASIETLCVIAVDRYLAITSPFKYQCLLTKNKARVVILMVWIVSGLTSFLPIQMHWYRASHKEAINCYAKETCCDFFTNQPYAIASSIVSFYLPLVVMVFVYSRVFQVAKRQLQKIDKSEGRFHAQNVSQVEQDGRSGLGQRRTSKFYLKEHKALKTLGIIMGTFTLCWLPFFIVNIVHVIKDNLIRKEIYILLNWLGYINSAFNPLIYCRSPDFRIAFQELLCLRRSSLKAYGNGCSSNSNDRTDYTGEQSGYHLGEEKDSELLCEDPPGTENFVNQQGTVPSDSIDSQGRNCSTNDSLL
T2 sequence (P08913 whole entry, looked up): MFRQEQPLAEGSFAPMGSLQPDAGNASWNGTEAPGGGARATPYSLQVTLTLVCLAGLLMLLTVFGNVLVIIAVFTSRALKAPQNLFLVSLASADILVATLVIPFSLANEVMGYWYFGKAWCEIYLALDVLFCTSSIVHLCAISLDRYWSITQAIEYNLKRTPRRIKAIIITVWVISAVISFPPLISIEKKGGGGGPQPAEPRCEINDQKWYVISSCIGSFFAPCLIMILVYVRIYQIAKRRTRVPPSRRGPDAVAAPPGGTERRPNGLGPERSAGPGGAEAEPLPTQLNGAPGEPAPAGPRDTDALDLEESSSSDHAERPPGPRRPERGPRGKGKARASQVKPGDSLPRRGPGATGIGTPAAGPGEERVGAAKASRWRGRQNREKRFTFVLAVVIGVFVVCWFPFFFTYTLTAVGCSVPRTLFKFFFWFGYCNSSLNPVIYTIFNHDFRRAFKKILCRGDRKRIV
T2 sequence (P18089 whole entry, looked up): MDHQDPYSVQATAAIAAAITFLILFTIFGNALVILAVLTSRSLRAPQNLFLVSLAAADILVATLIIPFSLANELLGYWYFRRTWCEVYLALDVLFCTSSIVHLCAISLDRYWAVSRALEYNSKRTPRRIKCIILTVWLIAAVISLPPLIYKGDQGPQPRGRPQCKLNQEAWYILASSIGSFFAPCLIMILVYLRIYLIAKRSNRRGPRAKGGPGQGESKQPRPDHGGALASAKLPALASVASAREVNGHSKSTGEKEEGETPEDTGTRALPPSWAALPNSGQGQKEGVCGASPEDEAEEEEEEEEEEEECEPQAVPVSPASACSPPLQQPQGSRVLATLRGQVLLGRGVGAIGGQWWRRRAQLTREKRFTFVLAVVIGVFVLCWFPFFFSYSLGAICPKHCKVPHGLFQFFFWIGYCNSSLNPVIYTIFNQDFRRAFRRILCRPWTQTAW
T2 sequence (P18825 whole entry, looked up): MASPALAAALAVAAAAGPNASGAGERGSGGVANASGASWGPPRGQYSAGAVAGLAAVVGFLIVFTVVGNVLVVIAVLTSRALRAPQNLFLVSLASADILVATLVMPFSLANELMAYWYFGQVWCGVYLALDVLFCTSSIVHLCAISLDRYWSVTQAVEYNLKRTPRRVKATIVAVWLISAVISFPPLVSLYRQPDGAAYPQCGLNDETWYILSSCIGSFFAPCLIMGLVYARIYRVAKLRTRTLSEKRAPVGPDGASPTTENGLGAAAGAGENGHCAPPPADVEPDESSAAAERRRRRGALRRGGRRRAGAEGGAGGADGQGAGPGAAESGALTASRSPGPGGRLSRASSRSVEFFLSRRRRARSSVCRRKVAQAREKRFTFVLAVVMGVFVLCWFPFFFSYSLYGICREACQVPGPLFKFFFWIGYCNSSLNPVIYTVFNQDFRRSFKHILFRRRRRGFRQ
Chain of Beta-1 adrenergic receptor (Cavia porcellus, UniProt B0FL73) (B0FL73 whole entry): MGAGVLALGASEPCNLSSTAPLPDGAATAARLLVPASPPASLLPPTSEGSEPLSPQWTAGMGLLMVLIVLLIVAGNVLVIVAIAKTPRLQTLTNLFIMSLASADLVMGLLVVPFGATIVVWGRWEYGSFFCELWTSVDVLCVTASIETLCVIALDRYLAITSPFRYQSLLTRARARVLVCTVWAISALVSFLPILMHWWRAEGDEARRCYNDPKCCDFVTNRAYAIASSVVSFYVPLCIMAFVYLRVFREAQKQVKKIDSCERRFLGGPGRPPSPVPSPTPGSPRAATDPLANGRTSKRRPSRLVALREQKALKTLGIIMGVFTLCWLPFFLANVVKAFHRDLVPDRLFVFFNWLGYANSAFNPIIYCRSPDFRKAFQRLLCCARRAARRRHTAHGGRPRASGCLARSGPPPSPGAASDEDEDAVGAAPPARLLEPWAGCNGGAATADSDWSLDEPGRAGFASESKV
Chain of Beta-2 adrenergic receptor (Cavia porcellus, UniProt Q8K4Z4) (Q8K4Z4 whole entry): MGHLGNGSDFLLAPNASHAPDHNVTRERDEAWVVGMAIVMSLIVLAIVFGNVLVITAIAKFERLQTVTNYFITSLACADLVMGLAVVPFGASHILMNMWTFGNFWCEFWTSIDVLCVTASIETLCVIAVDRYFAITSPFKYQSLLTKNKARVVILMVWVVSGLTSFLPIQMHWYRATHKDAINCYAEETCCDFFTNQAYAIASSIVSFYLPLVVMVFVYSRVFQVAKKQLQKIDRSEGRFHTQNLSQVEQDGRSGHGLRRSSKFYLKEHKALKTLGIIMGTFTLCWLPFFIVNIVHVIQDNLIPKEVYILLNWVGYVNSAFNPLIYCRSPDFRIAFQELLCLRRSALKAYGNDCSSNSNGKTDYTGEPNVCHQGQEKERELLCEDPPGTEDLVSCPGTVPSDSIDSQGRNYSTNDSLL
Chain of Beta-2 adrenergic receptor (Cavia porcellus) (Q8K4Z4 whole entry, looked up): as the sequence (Q8K4Z4 whole entry) above
Chain of Beta-1 adrenergic receptor (Cavia porcellus) (B0FL73 1-467): as the sequence (B0FL73 whole entry) above

pD2 [1] | pD2 [2] | IA [3] | Ki [4] [µM] | IC50 [5] [µM] | Ki [6] [µM] | Ki [7] [µM] | Ki [8] [µM] | IC50 [9] [µM] | IA [10] | IA [11] | IA [12] | pD2 [13] | pD2 [14] | -Log IC50 [15] | SMILES
3.97 | 5.45 | 0.42 | 3.45 | 30.2 | 28.8 | 60.3 | 1.28 | 6.76 | 0.73 | – | – | – | – | – | NCC1OCCc2cc(O)c(O)cc21 (stereo unspecified)
– | 4.56 | – | 1.49 | 5.5 | 4.9 | 26 | 4.12 | 33.9 | 0.72 | – | – | – | – | – | CC(C)NCC1OCCc2cc(O)c(O)cc21 (stereo unspecified)
5.12 | 6.56 | 1 | – | – | – | – | – | – | 1 | 1 | 1 | 6.03 | 6.32 | – | NC[C@H](O)c1ccc(O)c(O)c1
– | – | 0.83 | – | – | – | – | – | – | – | – | 1 | – | – | – | CC(C)NCC(O)c1ccc(O)c(O)c1 (stereo unspecified)
– | 5.26 | – | 28.8 | – | 14.9 | 21.5 | 1.78 | > 316 | 1 | – | – | < 3.5 | – | < 3.5 | CC(C)NCC1OCCc2c1ccc(O)c2O (stereo unspecified)
4.69 | – | 1.03 | 40.3 | > 316 | 49.9 | 42.2 | 0.0074 | 66.1 | 1 | – | – | – | – | – | NCC1OCCc2c1ccc(O)c2O (stereo unspecified)
